# Data published in BindingDB's records for patent US8962648 (Oncotherapy Science, 2015).
# Several values for one entry are separate records, joined by “and”; a condition that tells them apart may be missing. Equal values may be shown once.
# Molecular target: T1, Lymphokine-activated killer T-cell-originated protein kinase (Homo sapiens, UniProt Q96KB5)
# T1 sequence (Q96KB5 whole entry): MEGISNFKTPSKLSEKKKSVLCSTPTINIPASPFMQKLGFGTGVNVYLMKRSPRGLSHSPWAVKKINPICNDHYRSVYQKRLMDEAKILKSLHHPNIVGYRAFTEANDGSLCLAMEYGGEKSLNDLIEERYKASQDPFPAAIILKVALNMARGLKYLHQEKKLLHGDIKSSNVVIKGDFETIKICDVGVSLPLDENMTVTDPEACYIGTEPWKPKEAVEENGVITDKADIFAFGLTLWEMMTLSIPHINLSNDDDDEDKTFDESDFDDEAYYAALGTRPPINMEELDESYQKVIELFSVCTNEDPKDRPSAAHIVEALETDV
# Assay: Kinase Assay
# Details: pH 7.4; 25 °C
# Protocol: PBK activity was determined in the presence or absence of compounds using fluorescein isothiocyanate-labeled (FITC-labeled) histone H3 peptide as a substrate. […] The serially diluted compounds, 0.8 ng/micro-L PBK (Carna Biosciences) and 100 nM FITC-labeled histone H3 peptide were reacted in a reaction buffer (20 mM HEPES, 0.01% Tween-20, 0.3 mM MgCl2, 2 mM dithiothreitol, 50 micro-M ATP, pH 7.4) at room temperature for 1 hour. The reaction was stopped by the addition of three fold assay volume of progressive binding solution. Following 0.5 hour incubation at room temperature.
row,SMILES,IC50
1,"CN[C@H](C)c1ccc(-c2c(O)cc(Br)c3[nH]c(=O)c4sccc4c23)cc1 [US8962648, 1135]",30 nM
2,"CC(c1ccc(-c2c(O)c(F)c(F)c3[nH]c(=O)c4sccc4c23)cc1)N(C)C (centres undefined) [US8962648, 341]",34 nM
3,"CCC(N)c1ccc(-c2c(O)ccc3[nH]c(=O)c4sccc4c23)cc1 (centres undefined) [US8962648, 336]",0.82 nM
4,"CNC[C@@H](C)c1ccc(-c2c(O)ccc3[nH]c(=O)c4sccc4c23)cc1 [US8962648, 1197]",2.8 nM
5,"Cc1cc(O)c(-c2ccc(C(C)(C)CN)c(F)c2)c2c1[nH]c(=O)c1sccc12 [US8962648, 1278]",22 nM
6,"CC(C)(CN)c1ccc(-c2c(O)ccc3[nH]c(=O)c4sccc4c23)cc1 [US8962648, 277]",0.67 nM
7,"COc1cc(C)c2[nH]c(=O)c3sc(C)cc3c2c1-c1ccc([C@@H](C)CN)cc1 [US8962648, 1341]",38 nM
8,"NS(=O)(=O)c1ccc(-c2c(O)ccc3[nH]c(=O)c4sccc4c23)cc1 [US8962648, 65]",1.8 nM
9,"CS(=O)(=O)Nc1ccc(-c2c(O)ccc3[nH]c(=O)c4sccc4c23)cc1 [US8962648, 77]",2.6 nM
10,"Cc1cc(O)c(-c2ccc([C@@H](C)CN)cc2)c2c1[nH]c(=O)c1sc(F)cc12 [US8962648, 1383]",3.7 nM
11,"NCCc1ccc(-c2c(O)ccc3[nH]c(=O)c4sccc4c23)cc1 [US8962648, 176]",1.2 nM and 1.1 nM
12,"CC(N)c1ccc(-c2c(O)ccc3[nH]c(=O)c4sccc4c23)cc1F (centres undefined) [US8962648, 359]",0.92 nM
13,"COc1ccc2[nH]c(=O)c3sccc3c2c1-c1ccc(S(=O)(=O)NCCF)cc1 [US8962648, 333]",31 nM
14,"CCC(CN)c1ccc(-c2c(O)ccc3[nH]c(=O)c4sccc4c23)cc1 (centres undefined) [US8962648, 1309]",0.74 nM
15,"CCC(CN)c1ccc(-c2c(O)cc(C)c3[nH]c(=O)c4sccc4c23)cc1 (centres undefined) [US8962648, 1291]",15 nM
16,"Cc1cc(O)c(-c2ccc(C3(CN)CCC3)cc2)c2c1[nH]c(=O)c1sccc12 [US8962648, 1290]",10 nM
17,"NCC1(c2ccc(-c3c(O)ccc4[nH]c(=O)c5sccc5c34)cc2)CCC1 [US8962648, 1300]",1.7 nM
18,"CN(C)CCc1ccc(-c2c(O)ccc3[nH]c(=O)c4sccc4c23)cc1F [US8962648, 327]",1.9 nM
19,"C[C@@H](N)c1ccc(-c2c(O)ccc3[nH]c(=O)c4sccc4c23)cc1 [US8962648, 275]",0.54 nM
20,"CCNCc1ccc(-c2c(OC)ccc3[nH]c(=O)c4sccc4c23)cc1 [US8962648, 269]",6 nM
21,"CC[C@H](NC)c1ccc(-c2c(O)cc(Cl)c3[nH]c(=O)c4sccc4c23)cc1 [US8962648, 1154]",9.4 nM
22,"CC(C)(N)c1ccc(-c2c(O)ccc3[nH]c(=O)c4sccc4c23)cc1 [US8962648, 319]",0.43 nM
23,"CCC(CC)(CN)c1ccc(-c2c(O)ccc3[nH]c(=O)c4sccc4c23)cc1 [US8962648, 1209]",1.8 nM
24,"CC(=O)c1ccc(-c2c(O)ccc3[nH]c(=O)c4sccc4c23)cc1 [US8962648, 296]",23 nM
25,"CNC[C@H](C)c1ccc(-c2c(OC)ccc3[nH]c(=O)c4sccc4c23)cc1 [US8962648, 1189]",3 nM

row,SMILES,IC50
1,"CC[C@@H](N)c1ccc(-c2c(O)cc(C)c3[nH]c(=O)c4sccc4c23)cc1 [US8962648, 1157]",18 nM
2,"NCc1ccc(-c2c(O)cc(F)c3[nH]c(=O)c4sccc4c23)cc1 [US8962648, 256]",2.5 nM
3,"Cc1cc(O)c(-c2ccc(C3(CN)CC3)cc2)c2c1[nH]c(=O)c1sccc12 [US8962648, 1254]",9.6 nM
4,"CC(c1ccc(-c2c(O)ccc3[nH]c(=O)c4sccc4c23)cc1)N1CCCC1 (centres undefined) [US8962648, 194]",2.8 nM
5,"Cc1cc2c(s1)c(=O)[nH]c1c(C)cc(O)c(-c3ccc([C@@H](C)CN)cc3)c12 [US8962648, 1340]",12 nM
6,"C[C@H](c1ccc(-c2c(O)ccc3[nH]c(=O)c4sccc4c23)cc1)N(C)C [US8962648, 272]",0.88 nM
7,"C[C@H](CN(C)C)c1ccc(-c2c(O)ccc3[nH]c(=O)c4sccc4c23)cc1 [US8962648, 1172]",4 nM
8,"CCC(CN)c1ccc(-c2c(OC)cc(C)c3[nH]c(=O)c4sccc4c23)cc1 (centres undefined) [US8962648, 1277]",63 nM
9,"CC(O)c1ccc(-c2c(O)ccc3[nH]c(=O)c4sccc4c23)cc1 (centres undefined) [US8962648, 313]",2 nM
10,"CN[C@H](C)c1ccc(-c2c(OC)cc(C)c3[nH]c(=O)c4sccc4c23)cc1 [US8962648, 1265]",67 nM
11,"CCNCc1ccc(-c2c(O)ccc3[nH]c(=O)c4sccc4c23)cc1 [US8962648, 267]",2 nM
12,"CCN(CC)CCNCCCOc1ccc(-c2c(OC)ccc3[nH]c(=O)c4sccc4c23)cc1 [US8962648, 145]",47 nM
13,"CC(N)c1ccc(-c2c(O)ccc3[nH]c(=O)c4sccc4c23)cc1 (centres undefined) [US8962648, 195]",0.73 nM
14,"CC(NS(C)(=O)=O)c1ccc(-c2c(O)ccc3[nH]c(=O)c4sccc4c23)cc1 (centres undefined) [US8962648, 347]",3.7 nM and 2 nM
15,"CC(C)(CN)c1ccc(-c2c(O)ccc3[nH]c(=O)c4sccc4c23)cc1F [US8962648, 1271]",1 nM
16,"NCC1CCN(Cc2ccc(-c3c(O)ccc4[nH]c(=O)c5sccc5c34)cc2F)CC1 [US8962648, 235]",0.57 nM
17,"CNCCc1ccc(-c2c(O)cc(C)c3[nH]c(=O)c4sccc4c23)cc1F [US8962648, 1258]",25 nM
18,"CNCCc1ccc(-c2c(O)cc(Br)c3[nH]c(=O)c4sccc4c23)cc1F [US8962648, 1245]",45 nM
19,"COc1cc(Cl)c2[nH]c(=O)c3sccc3c2c1-c1ccc(C2(CN)CCC2)cc1 [US8962648, 1321]",96 nM
20,"C[C@@H](N)c1ccc(-c2c(O)cc(Br)c3[nH]c(=O)c4sccc4c23)cc1 [US8962648, 1123]",33 nM
21,"CN(C)CC(C)(C)c1ccc(-c2c(O)ccc3[nH]c(=O)c4sccc4c23)cc1 [US8962648, 308]",2.8 nM
22,"CS(=O)(=O)N1CCN(c2ccc(-c3c(O)ccc4[nH]c(=O)c5sccc5c34)cc2)CC1 [US8962648, 112]",12 nM
23,"Cc1cc(O)c(-c2ccc([C@@H](C)CN)cc2)c2c1[nH]c(=O)c1sc(Cl)cc12 [US8962648, 1353]",4 nM
24,"NCc1ccc(-c2c(O)ccc3[nH]c(=O)c4sccc4c23)s1 [US8962648, 266]",0.78 nM
25,"O=c1[nH]c2ccc(O)c(-c3ccc4cn[nH]c4c3)c2c2ccsc12 [US8962648, 61]",3.5 nM

row,SMILES,IC50
1,"CC(N)c1ccc(-c2c(O)cc(Br)c3[nH]c(=O)c4sccc4c23)cc1 (centres undefined) [US8962648, 1032]",47 nM
2,"N#Cc1ccc2[nH]c(=O)c3sccc3c2c1-c1ccc(CN)cc1 [US8962648, 326]",13 nM
3,"CCN(CC)C(C)c1ccc(-c2c(O)ccc3[nH]c(=O)c4sccc4c23)cc1F (centres undefined) [US8962648, 356]",3.6 nM
4,"CCN[C@H](CC)c1ccc(-c2c(O)ccc3[nH]c(=O)c4sccc4c23)cc1 [US8962648, 1127]",1.4 nM
5,"CC(C)(CN)c1ccc(-c2c(O)cc(Br)c3[nH]c(=O)c4sccc4c23)cc1 [US8962648, 1247]",72 nM
6,"CC[C@@H](N)c1ccc(-c2c(O)cc(Br)c3[nH]c(=O)c4sccc4c23)cc1 [US8962648, 1150]",47 nM
7,"CC[C@H](N)c1ccc(-c2c(O)ccc3[nH]c(=O)c4sccc4c23)cc1 [US8962648, 1120]",0.88 nM
8,"NCc1ccc(-c2c(O)cc(Br)c3[nH]c(=O)c4sccc4c23)cc1 [US8962648, 270]",31 nM
9,"COc1ccc2[nH]c(=O)c3sccc3c2c1-c1ccc(CCN)c(F)c1 [US8962648, 265]",3.8 nM
10,"CC(c1ccc(-c2c(O)ccc3[nH]c(=O)c4sccc4c23)cc1F)N(C)C (centres undefined) [US8962648, 349]",1.9 nM
11,"CC(c1ccc(-c2c(O)ccc3[nH]c(=O)c4sccc4c23)cc1)N1CCCCC1 (centres undefined) [US8962648, 262]",4.3 nM
12,"CC(C)(N)c1ccc(-c2c(O)cc(Cl)c3[nH]c(=O)c4sccc4c23)cc1 [US8962648, 334]",10 nM
13,"CCC(N)c1ccc(-c2c(OC)ccc3[nH]c(=O)c4sccc4c23)cc1 (centres undefined) [US8962648, 337]",5.2 nM
14,"COc1ccc2[nH]c(=O)c3sccc3c2c1-c1ccc([C@H](C)N)cc1 [US8962648, 232]",7.4 nM
15,"CNC[C@@H](C)c1ccc(-c2c(O)cc(C)c3[nH]c(=O)c4sccc4c23)cc1 [US8962648, 1215]",60 nM
16,"CC(c1ccc(-c2c(O)ccc3[nH]c(=O)c4sccc4c23)cc1)N(C)C (centres undefined) [US8962648, 192]",1.6 nM and 1.9 nM
17,"NCC1(c2ccc(-c3c(O)cc(Cl)c4[nH]c(=O)c5sccc5c34)cc2)CC1 [US8962648, 1116]",22 nM
18,"CC(c1ccc(-c2cccc3[nH]c(=O)c4sccc4c23)cc1)N(C)C (centres undefined) [US8962648, 346]",9.2 nM
19,"COc1cc(Cl)c2[nH]c(=O)c3sccc3c2c1-c1ccc(CCN)c(F)c1 [US8962648, 1218]",87 nM
20,"COc1cc(C)c2[nH]c(=O)c3sccc3c2c1-c1ccc(C2(CN)CCC2)cc1 [US8962648, 1297]",35 nM
21,"COc1ccc2[nH]c(=O)c3sccc3c2c1-c1ccc(C(C)CN)cc1 (centres undefined) [US8962648, 373]",3.2 nM
22,"CN[C@H](C)c1ccc(-c2c(O)cc(C)c3[nH]c(=O)c4sccc4c23)cc1 [US8962648, 1262]",12 nM
23,"O=c1[nH]c2ccc(O)c(-c3ccc4c(c3)CNCC4)c2c2ccsc12 [US8962648, 353]",2 nM
24,"NCc1ccc(-c2c(O)cc(Cl)c3[nH]c(=O)c4sccc4c23)cc1 [US8962648, 329]",16 nM
